Data published in patent US4923963A, “Bradykinin antagonist peptides” (Nova Technology Limited Partnership, priority 1987, dated 1990).
Where two headings read alike, the source gives them in different places. Square brackets hold non-standard residues; d marks the D form. Peptide text beside a SMILES is read from it. dPhe(4-Cl) = N[C@H](Cc1ccc(Cl)cc1)C(=O)O; d2Nal = N[C@H](Cc1ccc2ccccc2c1)C(=O)O; Hyp = O=C(O)[C@@H]1C[C@@H](O)CN1; 2Thi = N[C@@H](Cc1cccs1)C(=O)O; d2Thi = N[C@H](Cc1cccs1)C(=O)O

Legend:
rat blood pressure = assay: effects on blood pressure in the anesthetized rat (RBP), intraaortic and intravenous bolus; type: in vivo; set-up: RBP-IA: activity class / RBP-IV: activity class: scale not given here
Description: The in vivo effects of bradykinin antagonists on blood pressure in the anesthetized rat are determined according to the assay described by Roblero, Ryan and Stewart (Res. Commun. Pathol. Pharmacol. 6:207, 1973). The antagonists also produce inhibition of the bradykinin response when injected as a bolus admixture of bradykinin plus antagonist by either the ia or iv route of administration.

isolated rat uterus = type: cell-based; details: for pA2 /RUT: activity class: not quantitated
Description: The bradykinin antagonists were assayed on isolated rat uterus in natural or induced estrus and on guinea pig ileum, according to the commonly accepted assay methods for bradykinin and related kinins as described by Trautschold (Handbook of Expt. Pharmacol. Vol 25, Springer Verlag, pp. 53-55, 1970) for inhibition of the myotropic activity of bradykinin. The inhibition potencies, as determined according to the commonly accepted manner described by Schild for antagonists of biologically active compounds (Br. J. Pharmacol. 2:189, 1947), and expressed as pA2 values are determined on isolated rat uterus (RUT) and isolated guinea pig ileum (GPI). In the assays, a dose-response curve is determined for the reference substance bradykinin. The dose of bradykinin which produced a half maximal contraction of tissue is the ED50 dose. An amount of bradykinin equivalent to twice the ED50 dose is administered to the tissue 30 seconds after the start of incubation of the tissue with a dose of antagonist. Doses of antagonist are increased in this protocol until pre-incubation with a dose of antagonist reduces the contraction in response to the double ED50 dose of bradykinin to response of a single ED50 dose of bradykinin. The pA2 value represents the negative logarithm of the molar concentration of antagonist necessary to reduce the response of a double ED50 dose of bradykinin to that of an ED50 dose. One unit of pA2 value represents an order of magnitude change in potency. For comparison, the negative log of the dose of BK, the dose which causes half maximal contraction of the tissues, is commonly known as the pD2 value. The pD2 value for bradykinin is 7.9 on the rat uterus and 7.4 on the guinea pig ileum.

[1] = rat blood pressure, intraaortic bolus
[2] = rat blood pressure, intravenous bolus
[3] = isolated rat uterus, number of tissues in parentheses

Compound: CC[C@@H](C)[C@@H](NC(=O)[C@H](CCCNC(=N)N)NC(=O)[C@H](Cc1ccccc1)NC(=O)[C@@H](Cc1ccccc1)NC(=O)[C@H](CO)NC(=O)[C@H](Cc1ccccc1)NC(=O)CNC(=O)[C@@H]1CCCN1C(=O)[C@@H]1CCCN1C(=O)[C@@H](N)CCCNC(=N)N)C(=O)N[C@@H](Cc1ccc(O)cc1)C(=O)O [Example 69, Arg-Pro-Pro-Gly-Phe-Ser-DPhe-Phe-Arg-DIle-Tyr] (H-RPPGFS[dF]FR[dI]Y-OH)
- RBP-IA: agonist potency as percent of BK potency (rat blood pressure; [1]): 0.3%
- RBP-IV: agonist potency as percent of BK potency (rat blood pressure; [2]): 2%
- % DESTR (metabolic breakdown of BK-like agonists in RBP assay) (rat blood pressure; relative to BK = 100%): 75%

Compound: N=C(N)NCCC[C@H](N)C(=O)N1CCC[C@H]1C(=O)N1CCC[C@H]1C(=O)NCC(=O)N[C@@H](Cc1cccs1)C(=O)N[C@@H](CO)C(=O)N[C@H](Cc1ccccc1)C(=O)N[C@@H](Cc1cccs1)C(=O)N[C@H](CCCNC(=N)N)C(N)=O [Example 55, Arg-Pro-Pro-Gly-Thi-Ser-DPhe-Thi-DArg-NH2] (H-RPPG[2Thi]S[dF][2Thi][dR]-NH2)
- pA2 /RUT: agonist potency as percent of BK potency (isolated rat uterus): 0.01%
- % DESTR (metabolic breakdown of BK-like agonists in RBP assay) (rat blood pressure; rat, in vivo): 61%
- RBP-IA: agonist potency as percent of BK potency (rat blood pressure; rat, in vivo): 0.1%
- RBP-IV: agonist potency as percent of BK potency (rat blood pressure; rat, in vivo, iv): 0.9%

Compound: N=C(N)NCCC[C@H](NC(=O)[C@H](Cc1ccccc1)NC(=O)[C@@H](Cc1cccs1)NC(=O)[C@H](CO)NC(=O)[C@H](Cc1ccccc1)NC(=O)CNC(=O)[C@@H]1C[C@@H](O)CN1C(=O)[C@@H]1CCCN1C(=O)[C@H](N)Cc1cccs1)C(=O)O [Example 34, DThi Pro-Hyp-Gly-Phe-Ser-DThi-Phe-Arg] (H-[d2Thi]P[Hyp]GFS[d2Thi]FR-OH)
- pA2 /RUT: activity class (isolated rat uterus; isolated rat uterus): 0

Compound: N=C(N)NCCC[C@H](NC(=O)[C@H](Cc1ccccc1)NC(=O)[C@@H](Cc1ccccc1)NC(=O)[C@H](CO)NC(=O)[C@H](Cc1ccccc1)NC(=O)CNC(=O)[C@@H]1CCCN1C(=O)[C@@H]1CCCN1C(=O)[C@@H](N)CCCNC(=N)N)C(=O)O [Example 1, Arg-Pro-Pro-Gly-Phe-Ser-DPhe-Phe-Arg] (H-RPPGFS[dF]FR-OH)
- pA2 /RUT (antagonist potency) (isolated rat uterus; [3]): 5.0

Compound: N=C(N)NCCC[C@H](NC(=O)[C@H](CCCCN)NC(=O)[C@@H](N)CCCCN)C(=O)N1CCC[C@H]1C(=O)N1CCC[C@H]1C(=O)NCC(=O)N[C@@H](Cc1cccs1)C(=O)N[C@@H](CO)C(=O)N[C@H](Cc1ccccc1)C(=O)N[C@@H](Cc1cccs1)C(=O)N[C@H](CCCNC(=N)N)C(N)=O [Example 58, Lys-Lys-Arg-Pro-Pro-Gly-Thi-Ser-DPhe-Thi-DArg-NH2] (H-KKRPPG[2Thi]S[dF][2Thi][dR]-NH2)
- pA2 /RUT: agonist potency as percent of BK potency (isolated rat uterus): 0.02%
- % DESTR (metabolic breakdown of BK-like agonists in RBP assay) (rat blood pressure; rat, in vivo): 60%
- RBP-IA: agonist potency as percent of BK potency (rat blood pressure; rat, in vivo): 0.2%
- RBP-IV: agonist potency as percent of BK potency (rat blood pressure; rat, in vivo, iv): 3%

Compound: N=C(N)NCCC[C@@H](N)C(=O)N[C@@H](CCCNC(=N)N)C(=O)N1CCC[C@H]1C(=O)N1CCC[C@H]1C(=O)NCC(=O)N[C@@H](Cc1cccs1)C(=O)N[C@@H](CO)C(=O)N[C@H](Cc1ccccc1)C(=O)N[C@@H](Cc1cccs1)C(=O)N[C@H](CCCNC(=N)N)C(N)=O [Example 57, DArg-Arg-Pro-Pro-Gly-Thi-Ser-DPhe-Thi-DArf-NH2] (H-[dR]RPPG[2Thi]S[dF][2Thi][dR]-NH2)
- pA2 /RUT: agonist potency as percent of BK potency (isolated rat uterus; isolated rat uterus): 0.003%

Compound: N=C(N)NCCC[C@@H](N)C(=O)N[C@H](Cc1ccc(Cl)cc1)C(=O)N1CCC[C@H]1C(=O)N1CCC[C@H]1C(=O)NCC(=O)N[C@@H](Cc1ccccc1)C(=O)N[C@@H](CO)C(=O)N[C@H](Cc1cccs1)C(=O)N[C@@H](Cc1ccccc1)C(=O)N[C@@H](CCCNC(=N)N)C(=O)O [Example 7, DArg-CDF-Pro-Pro-Gly-Phe-Ser-DThi-Phe-Arg] (H-[dR][dPhe(4-Cl)]PPGFS[d2Thi]FR-OH)
- pA2 /RUT: activity class (isolated rat uterus; isolated rat uterus): 0
- RBP-IA: activity class (rat blood pressure; [1]): 0
- RBP-IV: activity class (rat blood pressure; [2]): 0

Compound: N=C(N)NCCC[C@H](NC(=O)[C@H](CCCCN)NC(=O)[C@@H](N)CCCCN)C(=O)N1CCC[C@H]1C(=O)N1CCC[C@H]1C(=O)NCC(=O)N[C@@H](Cc1cccs1)C(=O)N[C@@H](CO)C(=O)N[C@H](Cc1ccccc1)C(=O)N[C@@H](Cc1cccs1)C(=O)N[C@H](CCCNC(=N)N)C(=O)O [Example 44, Lys-Lys-Arg-Pro-Pro-Gly-Thi-Ser-DPhe-Thi-DArg] (H-KKRPPG[2Thi]S[dF][2Thi][dR]-OH)
- % DESTR (metabolic breakdown of BK-like agonists in RBP assay) (rat blood pressure; rat, in vivo): 0%
- RBP-IA: agonist potency as percent of BK potency (rat blood pressure; rat, in vivo): 0.2%
- RBP-IV: agonist potency as percent of BK potency (rat blood pressure; rat, in vivo, iv): 14%

Compound: CC[C@H](C)[C@H](NC(=O)[C@H](CCCNC(=N)N)NC(=O)[C@H](Cc1cccs1)NC(=O)[C@@H](Cc1ccccc1)NC(=O)[C@H](CO)NC(=O)[C@H](Cc1cccs1)NC(=O)CNC(=O)[C@@H]1CCCN1C(=O)[C@@H]1CCCN1C(=O)[C@@H](N)CCCNC(=N)N)C(=O)N[C@@H](Cc1ccc(O)cc1)C(=O)O [Example 65, Arg-Pro-Pro-Gly-Thi-Ser-DPhe-Thi-Arg-Ile-Tyr] (H-RPPG[2Thi]S[dF][2Thi]RIY-OH)
- pA2 /RUT: agonist potency as percent of BK potency (isolated rat uterus; isolated rat uterus): 0.5%
- RBP-IA: agonist potency as percent of BK potency (rat blood pressure; [1]): 0.06%
- RBP-IV: agonist potency as percent of BK potency (rat blood pressure; [2]): 6%
- % DESTR (metabolic breakdown of BK-like agonists in RBP assay) (rat blood pressure; relative to BK = 100%): 0%

Compound: CC[C@@H](C)[C@@H](NC(=O)[C@H](CCCNC(=N)N)NC(=O)[C@H](Cc1cccs1)NC(=O)[C@@H](Cc1ccccc1)NC(=O)[C@H](CO)NC(=O)[C@H](Cc1cccs1)NC(=O)CNC(=O)[C@@H]1C[C@@H](O)CN1C(=O)[C@@H]1CCCN1C(=O)[C@@H](N)CCCNC(=N)N)C(=O)N[C@@H](Cc1ccc(O)cc1)C(=O)O [Example 73, Arg-Pro-Hyp-Gly-Thi-Ser-DPhe-Thi-Arg-DIle-Tyr] (H-RP[Hyp]G[2Thi]S[dF][2Thi]R[dI]Y-OH)
- pA2 /RUT: agonist potency as percent of BK potency (isolated rat uterus; isolated rat uterus): 0.04%

Compound: CC[C@H](C)[C@H](NC(=O)[C@H](CCCNC(=N)N)NC(=O)[C@H](Cc1cccs1)NC(=O)[C@@H](Cc1ccccc1)NC(=O)[C@H](CO)NC(=O)[C@H](Cc1cccs1)NC(=O)CNC(=O)[C@@H]1C[C@@H](O)CN1C(=O)[C@@H]1CCCN1C(=O)[C@@H](N)CCCNC(=N)N)C(=O)N[C@@H](Cc1ccc(O)cc1)C(=O)O [Example 67, Arg-Pro-Hyp-Gly-Thi-Ser-DPhe-Thi-Arg-Ile-Tyr] (H-RP[Hyp]G[2Thi]S[dF][2Thi]RIY-OH)
- pA2 /RUT: agonist potency as percent of BK potency (isolated rat uterus; isolated rat uterus): 0.06%

Compound: N=C(N)NCCC[C@H](NC(=O)[C@H](Cc1cccs1)NC(=O)[C@@H](Cc1ccccc1)NC(=O)[C@H](CO)NC(=O)[C@H](Cc1cccs1)NC(=O)CNC(=O)[C@@H]1CCCN1C(=O)[C@@H]1CCCN1C(=O)[C@@H](Cc1ccc2ccccc2c1)NC(=O)[C@H](N)Cc1ccc2ccccc2c1)C(=O)O [Example 25, DNal-DNal-Pro-Pro-Gly-Thi-Ser-DPhe-Thi-Arg] (H-[d2Nal][d2Nal]PPG[2Thi]S[dF][2Thi]R-OH)
- pA2 /RUT (antagonist potency) (isolated rat uterus; [3]): 5.6

Compound: CC[C@@H](C)[C@@H](NC(=O)[C@H](CCCNC(=N)N)NC(=O)[C@H](Cc1cccs1)NC(=O)[C@@H](Cc1ccccc1)NC(=O)[C@H](CO)NC(=O)[C@H](Cc1cccs1)NC(=O)CNC(=O)[C@@H]1CCCN1C(=O)[C@@H]1CCCN1C(=O)[C@@H](N)CCCNC(=N)N)C(=O)N[C@@H](Cc1ccc(O)cc1)C(=O)O [Example 71, Arg-Pro-Pro-Gly-Thi-Ser-DPhe-Thi-Arg-DIle-Tyr] (H-RPPG[2Thi]S[dF][2Thi]R[dI]Y-OH)
- RBP-IA: agonist potency as percent of BK potency (rat blood pressure; [1]): 0.2%
- RBP-IV: agonist potency as percent of BK potency (rat blood pressure; [2]): 2%
- % DESTR (metabolic breakdown of BK-like agonists in RBP assay) (rat blood pressure; relative to BK = 100%): 55%

Compound: N=C(N)NCCC[C@H](NC(=O)[C@H](Cc1cccs1)NC(=O)[C@@H](Cc1ccccc1)NC(=O)[C@H](CO)NC(=O)[C@H](Cc1cccs1)NC(=O)CNC(=O)[C@@H]1CCCN1C(=O)[C@@H]1CCCN1C(=O)[C@H](CCCNC(=N)N)NC(=O)[C@H](CCCCN)NC(=O)[C@@H](N)CCCCN)C(N)=O [Example 54, Lys-Lys-Arg-Pro-Pro-Gly-Thi-Ser-DPhe-Thi-Arg-NH2] (H-KKRPPG[2Thi]S[dF][2Thi]R-NH2)
- pA2 /RUT: agonist potency as percent of BK potency (isolated rat uterus): 0.02%

Compound: N=C(N)NCCC[C@@H](N)C(=O)N[C@H](Cc1ccc2ccccc2c1)C(=O)N1CCC[C@H]1C(=O)N1CCC[C@H]1C(=O)NCC(=O)N[C@@H](Cc1cccs1)C(=O)N[C@@H](CO)C(=O)N[C@H](Cc1ccccc1)C(=O)N[C@@H](Cc1cccs1)C(=O)N[C@@H](CCCNC(=N)N)C(=O)O [Example 23, DArg-DNal-Pro-Pro-Gly-Thi-Ser-DPhe-Thi-Arg] (H-[dR][d2Nal]PPG[2Thi]S[dF][2Thi]R-OH)
- pA2 /RUT (antagonist potency) (isolated rat uterus): 5.8

Compound: N=C(N)NCCC[C@H](NC(=O)[C@H](Cc1cccs1)NC(=O)[C@@H](Cc1ccccc1)NC(=O)[C@H](CO)NC(=O)[C@H](Cc1cccs1)NC(=O)CNC(=O)[C@@H]1CCCN1C(=O)[C@@H]1CCCN1C(=O)[C@H](N)Cc1ccc2ccccc2c1)C(=O)O [Example 22, DNal-Pro-Pro-Gly-Thi-Ser-DPhe-Thi-Arg] (H-[d2Nal]PPG[2Thi]S[dF][2Thi]R-OH)
- pA2 /RUT (antagonist potency) (isolated rat uterus): 5.6
